Measurements: PubChem BioAssay AID623988 (Vanderbilt High Throughput Screening Facility, 2012)

Target: Voltage-gated inwardly rectifying potassium channel KCNH2 (Homo sapiens) (UniProt Q12809)
Assay: KCNH2 potassium channel blockade – cell-based, thallium flux, concentration-response, selectivity assay for GIRK activator project, dose response (AID 623988)
Settings: hERG-expressing HEK293 cells, thallium flux fluorescence

Sequence of Voltage-gated inwardly rectifying potassium channel KCNH2 (Homo sapiens) (Q12809 whole entry, looked up): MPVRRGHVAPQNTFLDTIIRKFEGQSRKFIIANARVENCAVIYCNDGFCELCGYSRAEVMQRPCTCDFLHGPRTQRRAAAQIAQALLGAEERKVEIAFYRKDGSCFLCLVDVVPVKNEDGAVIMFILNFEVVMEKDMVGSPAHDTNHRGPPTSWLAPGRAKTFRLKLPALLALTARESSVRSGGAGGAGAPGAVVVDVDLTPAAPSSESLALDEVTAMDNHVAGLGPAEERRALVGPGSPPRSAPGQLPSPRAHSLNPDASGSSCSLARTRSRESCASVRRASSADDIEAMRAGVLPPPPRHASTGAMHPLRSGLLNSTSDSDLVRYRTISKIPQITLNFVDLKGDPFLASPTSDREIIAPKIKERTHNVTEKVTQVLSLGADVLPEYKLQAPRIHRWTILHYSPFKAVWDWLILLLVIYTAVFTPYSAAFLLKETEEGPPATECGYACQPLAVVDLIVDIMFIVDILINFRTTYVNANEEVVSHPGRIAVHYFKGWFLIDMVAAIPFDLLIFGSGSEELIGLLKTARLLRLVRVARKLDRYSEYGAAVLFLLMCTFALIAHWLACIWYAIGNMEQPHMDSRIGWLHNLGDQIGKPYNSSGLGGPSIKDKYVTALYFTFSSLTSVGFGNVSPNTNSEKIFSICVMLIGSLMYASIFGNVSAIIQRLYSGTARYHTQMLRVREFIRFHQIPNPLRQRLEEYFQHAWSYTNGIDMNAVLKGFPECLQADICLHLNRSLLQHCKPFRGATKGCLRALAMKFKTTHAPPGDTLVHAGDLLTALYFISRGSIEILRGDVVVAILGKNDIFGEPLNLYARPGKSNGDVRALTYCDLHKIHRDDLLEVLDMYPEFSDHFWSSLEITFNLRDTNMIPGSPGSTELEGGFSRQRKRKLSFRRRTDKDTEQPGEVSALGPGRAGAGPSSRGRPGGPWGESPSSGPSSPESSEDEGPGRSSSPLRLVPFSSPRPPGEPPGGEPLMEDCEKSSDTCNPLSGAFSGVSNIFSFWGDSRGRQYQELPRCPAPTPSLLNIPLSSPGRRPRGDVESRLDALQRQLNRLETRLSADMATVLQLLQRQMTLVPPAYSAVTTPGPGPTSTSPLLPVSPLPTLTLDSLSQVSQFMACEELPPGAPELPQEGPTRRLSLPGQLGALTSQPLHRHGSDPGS

Cc1cc(NC(=O)Nc2ccc(F)c(F)c2)n(-c2ccccc2)n1
IC50: 10.8 µM
